Source: paper PMC10046377, “Inhibitors of the Oncogenic PA2G4-MYCN Protein-Protein Interface” (Cancers, 2023)

Key:
[1] = tested on: WI-38 cells; test: Alamar Blue cell viability assay, WI-38 non-malignant myofibroblasts; assay type: cell-based; conditions: Homo sapiens, read-out: IC50 WI-36
Text: (§1) The MYCN amplified neuroblastoma cell line SK-N-BE(2)-C was kindly provided by Professor June Biedler (Memorial Sloan Kettering Cancer Centre, New York, NY, USA), and Kelly was obtained from European Collection of Cell Cultures. The two normal lung fibroblast cell lines (MRC-5 and WI-38) were purchased from ATCC. SK-N-BE(2)-C shMYCN#2 doxycycline-inducible cell and Kelly shMYCN#2 doxycycline-inducible cell were custom-made by GenScript (Piscataway, NJ, USA). SK-N-BE(2)-C, SK-N-BE(2)-C shMYCN#2, and SHEP MYCN3 doxycycline-inducible cells were maintained in Dulbecco’s modified Eagle’s medium (DMEM) (Invitrogen, Life Technologies, Waltham, MA, USA) with 10% foetal calf serum (FCS). Kelly and Kelly shMYCN#2 doxycycline-inducible cell were cultured in Roswell Park Memorial Institute (RPMI) 1640 (Invitrogen, Life Technologies) with 10% FCS. MRC-5 and WI-38 were cultured in Alpha-MEM media (Invitrogen, Life Technologies) with 10% FCS. All cells were not cultured for more than 2 months. All used cell lines were authenticated by Cell Bank Australia (Westmead, NSW, Australia) as being free from mycoplasma, and cultured at 37 °C and 5% CO2 in a humidifier incubator.
(§2) Cell viability was determined by the Alamar Blue assay (75 mg resazurin, 12.5 mg methylene blue, 164.5 mg potassium hexacyanoferrate (III), 211 mg potassium hexacyanoferrate (II) trihydrate in 500 mL of phosphate buffered saline). After 6 h incubation with Alamar Blue, the change of fluorescence was measured by Victor 3 multilabel Plate Reader (Perkin Elmer Australia, Melburne, Australia) at an excitation wavelength of 560 nm and an emission wavelength of 590 nm.
(§3) We have shown that the PA2G4 protein increased the half-life of the oncoprotein MYCN through direct binding, and competitive chemical inhibition of this bond by WS6 reduced tumorigenicity both in vitro and in vivo [11]. […] Here, we explored the structure–activity relationship (SAR) of WS6 analogue compounds with the aim to increase efficacy and reduce toxicity. […] The in vitro cytotoxicity of these 14 compounds were measured by cell viability assays using Alamar Blue in MYCN amplified human neuroblastoma (SK-N-BE(2)-C and Kelly) cell lines compared to non-malignant (WI-38, MRC-5) myofibroblast cell lines (Figure 1B,C and Supplementary Figure S1A).

[2] = tested on: SK-N-BE(2)-C cells; test: Alamar Blue cell viability assay, SK-N-BE(2)-C; assay type: cell-based; conditions: Homo sapiens, MYCN amplified neuroblastoma cell line
Text: as §1, §2, §3

[3] = tested on: normal human myofibroblasts; test: Toxicity for normal human myofibroblasts relative to WS6; assay type: cell-based
Protocol: as §2, §3

[4] = tested on: Kelly shMYCN cells; test: Alamar Blue viability, Dox-inducible Kelly shMYCN cells; assay type: cell-based; conditions: Homo sapiens, 72 h, 72 h treatment
Text: as §1, §2
Next, we examined whether #5333 and #5338 treatment for 48 h affected the levels of WS6 target proteins, PA2G4, and MYCN in neuroblastoma cells. […] To determine the specificity of #5333 and #5338 for MYCN, we used two different doxycycline (Dox)-inducible neuroblastoma cell systems for repression of MYCN expression: shMYCN SK-N-BE(2)-C (MYCN-amplified) and shMYCN Kelly (MYCN-amplified) cell lines. Cell viability was measured following #5333 and #5338 treatments for 48–72 h. […] In addition, the specificity and efficacy of #5333 and #5338 were also tested in MYCN non-amplified SHEP MYCN3 cell lines with Dox-inducible MYCN induction. Cell viability was measured following #5333, #5338, or WS6 treatments for 72 h.
Figure 3 Compounds #5333 and #5338 functionally interact with MYCN and PA2G4 in neuroblastoma cells. (A) Western blot showing a decrease in protein expression due to #5333 or #5338 drug treatment. (B) Alamar Blue assays comparing cell viability of SK-N-BE(2)-C after Doxycycline (Dox)-inducible MYCN knockdown, followed by 72 h treatment with #5333 or #5338. […]

[5] = tested on: SHEP MYCN3 cells; test: Alamar Blue viability, SHEP MYCN3 cells with Dox-inducible MYCN induction; assay type: cell-based, human; conditions: Dox-induced MYCN expression, 72 h treatment, compared with DMSO treated controls and WS6
Text: The MYCN amplified neuroblastoma cell line SK-N-BE(2)-C was kindly provided by Professor June Biedler (Memorial Sloan Kettering Cancer Centre, New York, NY, USA), and Kelly was obtained from European Collection of Cell Cultures. The two normal lung fibroblast cell lines (MRC-5 and WI-38) were purchased from ATCC. SK-N-BE(2)-C shMYCN#2 doxycycline-inducible cell and Kelly shMYCN#2 doxycycline-inducible cell were custom-made by GenScript (Piscataway, NJ, USA). SK-N-BE(2)-C, SK-N-BE(2)-C shMYCN#2, and SHEP MYCN3 doxycycline-inducible cells were maintained in Dulbecco’s modified Eagle’s medium (DMEM) (Invitrogen, Life Technologies, Waltham, MA, USA) with 10% foetal calf serum (FCS). […]
as §2
Next, we examined whether #5333 and #5338 treatment for 48 h affected the levels of WS6 target proteins, PA2G4, and MYCN in neuroblastoma cells. […] Cell viability was measured following #5333 and #5338 treatments for 48–72 h. […]

[6] = tested on: SK-N-BE(2)-C cells; test: Colony formation assay, SK-N-BE(2)-C; assay type: cell-based, human; conditions: increasing concentrations, 2 weeks
Protocol: A total of 250 SK-N-BE(2)-C and 500 Kelly cells were seeded in 6-well plates and treated with #5333 and #5338 24 h after seeding. Once colonies had formed (14 days for Kelly, 10 days for SK-N-BE(2)-C), cells were fixed and stained with 0.5% crystal violet in 50% methanol and washed twice to remove the unincorporated stain. The photos of colonies were taken by ChemiDoc MP Imaging System (Bio-Rad, South Granville, NSW, Australia). Stained colonies were counted, and colony size was measured using Image J software.
We treated human neuroblastoma tumour cell lines with high MYCN and PA2G4 expression (Kelly and SK-N-BE(2)-C), using increasing concentrations of #5333 or #5338, and measured the ability of cells to proliferate and form colonies in vitro over 2 weeks. […] Next, we evaluated cell replication using the BrdU uptake assay in response to 30 μM drug treatment for 48 h (Figure 2C).

[7] = Dox (2 μg/ml) +, MYCN - (knockdown)

Row | IC50 [2] [µM] | Compound | IC50 [1] [µM] | fold lower toxicity for normal human myofibroblasts compared to WS6 [3] [fold] | IC50 [4, 7] [µM] | IC50 ([4]; Dox (2 μg/ml) -, MYCN +) [µM] | change of IC50 on MYCN induction, SHEP MYCN3 [5] | colony number and size, SK-N-BE(2)-C [6]
1 | 30 | Cc1cccc(Oc2cc(N3CCC(C(=O)NCc4cccc(C(F)(F)F)c4)CC3)ncn2)c1C [#3567] | 80 |  |  |  |  | 
2 | 26.5 | Cc1cccc(Oc2cc(N3CCC(C(=O)NCc4cccc(Br)c4)CC3)ncn2)c1C [#5333] | 100 | 70 | 52.8 | 22.4 | significant decrease in IC50 | decreased both the number and size of the colonies
3 | 23.3 | Cc1cccc(Oc2cc(N3CCC(C(=O)N[C@@H](C)CCc4ccccc4)CC3)ncn2)c1C [#5338] | 100 | 70 | 31.5 | 16 | significant decrease in IC50 | decreased both the number and size of the colonies
